Experimental findings from US5556744A, “Methods and compositions for diagnosing and treating certain HIV infected patients” (The Trustees of the University of Pennsylvania, priority 1994, dated 1996) are described below.

The test system of the assay is maternal sera (antibodies). Briefly: ELISA peptide-binding of maternal sera (Example 6). More on the design: species or system human. The conditions noted are these: for Number of Non-Transmitters which bound to peptide / Percent of Non-Transmitters which bound to peptide: N = 12; for Number of Transmitters which bound to peptide / Percent of Transmitters which bound to peptide: N = 4. An excerpt: A total of 86 maternal sera samples obtained from patients of the Hospital of the University of Pennsylvania during the third trimester of pregnancy were used in this study 58 (67%) were non-transmitters and 28 (33%) were transmitters. This is approximately consistent with the national average (i.e. a rate of transmission between 25-30%). Transmission status was based upon serological or molecular diagnosis of children (at an age of greater than 15 months) born to these mothers. Because of the constraints on the volume of serum available for many of these samples, not all sera were analyzed with all the peptides. However, each sera sample was run with at least 40 peptides.
These peptides are of an average length of 16 amino acids and covered the entire external as well as the transmembrane glycoprotein of HIV-1. Peptide binding was analyzed by ELISA essentially as described in Example 3.
The results of one study, using some of the peptides identified above among others, is provided in Table 12, which illustrates the number and percent of non-transmitters which bound to the tested peptide. The percentage designation refers to the percentage of sera samples which bound to a particular peptide. A value of greater than 0% means that at least one of the samples bound to the particular peptides.

As for “41-21: gp41 peptide, amino acids 661-683, HIV strain IIIB, SEQ ID NO: 152 (LELDKWASLWNWFNITNWLWYIK) [Peptide 41-21]”, the “Number of Non-Transmitters which bound to peptide” value came out at 0, the “Percent of Non-Transmitters which bound to peptide” value worked out at 0%, the “Number of Transmitters which bound to peptide” value is reported as 0 and the “Percent of Transmitters which bound to peptide” value turned out to be 0%.

With “41-22: gp41 peptide, amino acids 702-720, HIV strain BH10, SEQ ID NO: 155 [Peptide 41-22]”, the “Number of Non-Transmitters which bound to peptide” value was 0, the “Percent of Non-Transmitters which bound to peptide” value came to 0%, the “Number of Transmitters which bound to peptide” value is reported as 0 and the “Percent of Transmitters which bound to peptide” value was determined as 0%.

For the substance “105: gp120 peptide, amino acids 286-300, SEQ ID NO:112 (VQLNTSVEINCTRPN) [Peptide 105]”, the “Number of Non-Transmitters which bound to peptide” value turned out to be 0, the “Percent of Non-Transmitters which bound to peptide” value came to 0%, the “Number of Transmitters which bound to peptide” value came to 0 and the “Percent of Transmitters which bound to peptide” value worked out at 0%.

As for “124: gp41 peptide, amino acids 646-660, SEQ ID NO:123 (IEESQNQQEKNEQEL) [Peptide 124]”, the “Number of Non-Transmitters which bound to peptide” value is given as 0, the “Percent of Non-Transmitters which bound to peptide” value was determined as 0%, the “Number of Transmitters which bound to peptide” value was 0 and the “Percent of Transmitters which bound to peptide” value turned out to be 0%.

Regarding “5099: gp41 peptide, amino acids 512-543, HIV strain IIIB, SEQ ID NO: 162 (AYGIGALFLGFLGAAGSTMGAASMTLTVQARC) [Peptide 5099]”, the “Number of Non-Transmitters which bound to peptide” value is on record as 1, the “Percent of Non-Transmitters which bound to peptide” value is recorded as 83%, the “Number of Transmitters which bound to peptide” value was found to be 0 and the “Percent of Transmitters which bound to peptide” value is listed as 0%.

“A405: gp120 peptide, amino acids 405-423, HIV strain Z3, SEQ ID NO: 130 (TGNITLPCRIKQVVRTWQG) [Peptide A405]”: the “Number of Non-Transmitters which bound to peptide” value amounted to 1, the “Percent of Non-Transmitters which bound to peptide” value amounted to 8.3%, the “Number of Transmitters which bound to peptide” value was 0 and the “Percent of Transmitters which bound to peptide” value was 0%.

Consider “A487: gp120 peptide, amino acids 481-503, HIV strain IIIB, SEQ ID NO: 132 (ELYKYKVVKIEPLGVAPTKAKRR) [Peptide A487]”, for which the “Number of Non-Transmitters which bound to peptide” value was 1, the “Percent of Non-Transmitters which bound to peptide” value is reported as 8.3%, the “Number of Transmitters which bound to peptide” value is recorded as 0 and the “Percent of Transmitters which bound to peptide” value is 0%.

Regarding “A524: gp41 peptide, amino acids 523-530, HIV strain MN, SEQ ID NO: 163 (FLGFLGAAGST) [Peptide A524]”, the “Number of Non-Transmitters which bound to peptide” value worked out at 0, the “Percent of Non-Transmitters which bound to peptide” value worked out at 0%, the “Number of Transmitters which bound to peptide” value turned out to be 0 and the “Percent of Transmitters which bound to peptide” value is recorded as 0%.

Consider “A581: gp41 peptide, amino acids 576-592, SEQ ID NO:120 (LQARILAVERYLKDQQL) [Peptide A581]”, for which the “Number of Non-Transmitters which bound to peptide” value is 2, the “Percent of Non-Transmitters which bound to peptide” value came to 16.7%, the “Number of Transmitters which bound to peptide” value worked out at 0 and the “Percent of Transmitters which bound to peptide” value is 0%.

Take “A604 (IIIB): Peptide A604 (IIIB), Sequence ID No. 193 (CTTAVPWNASWSNKS)”: the “Number of Non-Transmitters which bound to peptide” value is 2, the “Percent of Non-Transmitters which bound to peptide” value turned out to be 16.7%, the “Number of Transmitters which bound to peptide” value was found to be 0 and the “Percent of Transmitters which bound to peptide” value worked out at 0%.

“A620: gp41 peptide, amino acids 615-627, HIV strain IIIB, SEQ ID NO: 172 (SNKSLEQIWNNMT) [Peptide A620]”: the “Number of Non-Transmitters which bound to peptide” value is recorded as 1, the “Percent of Non-Transmitters which bound to peptide” value was 8.3%, the “Number of Transmitters which bound to peptide” value was found to be 0 and the “Percent of Transmitters which bound to peptide” value amounted to 0%.

For the substance “A733: gp41 peptide, amino acids 728-745, HIV strain IIIB, SEQ ID NO: 174 (DRPEGIEEEGGERDRDRS) [Peptide A733]”, the “Number of Non-Transmitters which bound to peptide” value amounted to 1, the “Percent of Non-Transmitters which bound to peptide” value was found to be 8.3%, the “Number of Transmitters which bound to peptide” value amounted to 0 and the “Percent of Transmitters which bound to peptide” value turned out to be 0%.

For “A824: gp41 peptide, amino acids 824-831, HIV strain IIIB, SEQ ID NO: 175 (EGTDRVIE) [Peptide A824]”, the “Number of Non-Transmitters which bound to peptide” value turned out to be 0, the “Percent of Non-Transmitters which bound to peptide” value is 0%, the “Number of Transmitters which bound to peptide” value is 0 and the “Percent of Transmitters which bound to peptide” value was 0%.

Regarding “A6938: gp120 peptide, amino acids 200-217, HIV strain IIIB, SEQ ID NO: 135 (VITQACPKVSFEPIPIHY) [Peptide A6938]”, the “Number of Non-Transmitters which bound to peptide” value was determined as 0, the “Percent of Non-Transmitters which bound to peptide” value came to 0%, the “Number of Transmitters which bound to peptide” value was 0 and the “Percent of Transmitters which bound to peptide” value came out at 0%.

“A6939: gp120 peptide, amino acids 210-227, SEQ ID NO:108 (FEPIPIHYCAPAGFAILK) [Peptide A6939]”: the “Number of Non-Transmitters which bound to peptide” value is recorded as 0, the “Percent of Non-Transmitters which bound to peptide” value is 0%, the “Number of Transmitters which bound to peptide” value came out at 0 and the “Percent of Transmitters which bound to peptide” value was 0%.

For “BS-1: gp120 peptide, amino acids 319-329, SEQ ID NO:114 (TIGKIGNMRQA)”, the “Number of Non-Transmitters which bound to peptide” value is 0, the “Percent of Non-Transmitters which bound to peptide” value is 0%, the “Number of Transmitters which bound to peptide” value was 0 and the “Percent of Transmitters which bound to peptide” value amounted to 0%.

With “BS-2: gp41 peptide, amino acids 625-634, HIV strain IIIB, SEQ ID NO: 176 (NMTWMEWDRE)”, the “Number of Non-Transmitters which bound to peptide” value stood at 0, the “Percent of Non-Transmitters which bound to peptide” value amounted to 0%, the “Number of Transmitters which bound to peptide” value is 0 and the “Percent of Transmitters which bound to peptide” value is reported as 0%.

Consider “C21E: gp120 peptide, amino acids 252-272, HIV strain MN, SEQ ID NO: 147 (CTHGIRPVVSTQLLLNGSLAE) [Peptide C21E]”, for which the “Number of Non-Transmitters which bound to peptide” value is 0, the “Percent of Non-Transmitters which bound to peptide” value was 0%, the “Number of Transmitters which bound to peptide” value is reported as 0 and the “Percent of Transmitters which bound to peptide” value came out at 0%.

Take “CNNKTFNGTGFCTNVSTVQ (CNNKTFNGTGPCTNVSTVQ) [Peptide C19Q]”: the “Number of Non-Transmitters which bound to peptide” value was determined as 4, the “Number of Transmitters which bound to peptide” value was 0 and the “Percent of Transmitters which bound to peptide” value amounted to 0%.

On to “DC419 (IIIB): Peptide DC419 (IIIB), Sequence ID No. 191 (TGDIITLPCRIKQIINRWQV)”, for which the “Number of Non-Transmitters which bound to peptide” value is 0, the “Percent of Non-Transmitters which bound to peptide” value was 0%, the “Number of Transmitters which bound to peptide” value stood at 0 and the “Percent of Transmitters which bound to peptide” value was 0%.

For the substance “KQIINMWQEVGKAMYA/CTRPNNNTRKSIRIQRGPG (KQIINMWQEVGKAMYACTRPNNNTRKSIRIQRGPG) [1/SP10IIIB]”, the “Number of Non-Transmitters which bound to peptide” value is on record as 8, the “Percent of Non-Transmitters which bound to peptide” value amounted to 66.7%, the “Number of Transmitters which bound to peptide” value came to 1 and the “Percent of Transmitters which bound to peptide” value was 25%. Under “Example 6”, the “Correlation of peptide binding with non-transmitters (in words)” value is “selectively correlate with non-transmitters” and the “Fold binding, non-transmitters vs transmitters” value is “at least two fold greater”. In addition, for the setting “listed as 1/SP10 IIIB”, the “Percent of Non-Transmitters which bound to peptide” value is on record as “greater than 50%”.

For “RG-1: gp41 peptide, amino acids 510-516, HIV strain IIIB, SEQ ID NO: 177 (KRAVGIG)”, the “Number of Non-Transmitters which bound to peptide” value is reported as 3, the “Percent of Non-Transmitters which bound to peptide” value came to 25%, the “Number of Transmitters which bound to peptide” value is listed as 1 and the “Percent of Transmitters which bound to peptide” value was 25%.

With “RG-2: gp41 peptide, amino acids 678-697, HIV strain IIIB, SEQ ID NO: 178 (WLWYIKLFIMIVGGLVGLRI)”, the “Number of Non-Transmitters which bound to peptide” value came out at 0, the “Percent of Non-Transmitters which bound to peptide” value is reported as 0%, the “Number of Transmitters which bound to peptide” value is given as 0 and the “Percent of Transmitters which bound to peptide” value was 0%.

In the case of “S19C: Peptide S19C, Sequence ID No. 196; described in the January 1991 Catalog (STQLLLNGSLAEEEVVIR)”, the “Number of Non-Transmitters which bound to peptide” value is reported as 0, the “Percent of Non-Transmitters which bound to peptide” value was 0%, the “Number of Transmitters which bound to peptide” value amounted to 0 and the “Percent of Transmitters which bound to peptide” value was found to be 0%.

Consider “T19V: Peptide T19V, Sequence ID No. 195; described in the January 1991 Catalog (TGPCTNVSTVQCTHGIRPV)”, for which the “Number of Non-Transmitters which bound to peptide” value stood at 3, the “Percent of Non-Transmitters which bound to peptide” value was 25%, the “Number of Transmitters which bound to peptide” value amounted to 0 and the “Percent of Transmitters which bound to peptide” value was found to be 0%.
